Results from patent US20090294381A1, “METHODS FOR CONTROLLING PH IN WATER SANITIZED BY CHEMICAL OR ELECTROLYTIC CHLORINATION” (ZODIAC POOL CARE, INC., priority 2005, published 2009).
Read-outs that look alike come from different tables or passages of the source.

Columns and labels:
[1] = cited from earlier work
Chlorella vulgaris = experiment: Algae growth in nutrient medium, serial dilution tubes, visual bottom pellicle formation; type: cell-based; design: key: +++ indicates good growth; ++ indicates scant growth; + indicates very low growth; − indicates no growth
Protocol: An algae nutrient medium was prepared by mixing the following with 940 mL deionized (DI) water:
Primary stocks were made by including each of the test compounds in the table below in DI as 100 mL aliquots of 1000 ppm solutions. Working stocks in algae media were made as 128 ppm solutions (13 mL/100 mL DI). These solutions were serially diluted and placed into disposable borosilicate tubes, each containing 5 mL of algae medium. The highest theoretical concentration of each compound tested was 64 ppm; as a result of the serial dilution, concentrations of 32, 16, 8, 4, 2, 1, 0.5, and 0.25 ppm were tested. Each tube as inoculated with 50 μL of 10-12 day old Chlorella vulgaris, having an approximate density of 3.0×10^5 cells/mL. Growth was evaluated in a semi-quantitative fashion by visually observing bottom pellicle formation, which was compared to 2 controls. In the table below, +++ indicates good growth, ++ indicates scant growth, + indicates very low growth, and − indicates no growth.

[2] = Phosphate removal and turbidity in 250 gallon mini-pool
Protocol: A 250 gallon mini-pool was filled with tap water and balanced with calcium chloride, sodium bicarbonate, sodium bisulfate, and sodium hypochlorite. Sufficient sodium phosphate was added to the pool to give a phosphate concentration of approximately 1.0 ppm (calculated as ortho-phosphate). While mixing, lanthanum chloride was added to the water, where it combined with the phosphate and caused formation of a precipitate. The amount of lanthanum chloride added was sufficient to reduce phosphate concentration to less than 100 ppb. The water was allowed to mix (via stirring) for 15 minutes. […] Samples were taken at intervals during the study, and analyzed for turbidity, phosphate level, and lanthanum level, and in some cases, for pH and total alkalinity. […]
A 250 gallon mini-pool was filled with tap water and balanced with calcium chloride, sodium bicarbonate, sodium bisulfate, and sodium hypochlorite. Sufficient sodium phosphate was added to the pool to give a phosphate concentration of approximately 1.0 ppm (calculated as ortho-phosphate). […] Samples were taken at intervals during the study, and analyzed for turbidity, phosphate level, and zinc level, and in some cases, for pH and total alkalinity. […]

[3] = Phosphate removal in full sized swimming pools via Nature2 G cartridge; conditions: Example 6: 7 pools, 15,000 to 27,000 gallons, about 1.0 ppm phosphate, 900 grams per cartridge
From the text: Sufficient sodium phosphate was broadcast to water in 7 full sized swimming pools, ranging in size from 15,000 to 27,000 gallons, to give a phosphate concentration of about 1.0 ppm (calculated as ortho-phosphate). The pools were allowed to mix for at least one hour. A Nature^2 G sized cartridge containing 900 grams of lanthanum chloride was connected to each pool water circulation system, and pumping through the cartridge was initiated, delivering lanthanum to the water. Water samples were taken at intervals and analyzed to determine turbidity, phosphate levels, and lanthanum levels, and in some cases, pH and total alkalinity. Six of the pools had surface cleaners in constant use and the remaining pool used a pool service. Each of the pools was filtered using a pleated cartridge filter. Turbidity of 6 of the 7 pools returned to starting levels (before lanthanum was added to precipitate out the phosphate) after 48 hours. A minimum of 90% of phosphate was removed from each of the pools.

In the case of `[OH][Al]([OH])[OH]` [Al(OH)3], the “log Ksp” value ([1]; metal hydroxides) is listed as −32.7.

For `O=P([O-])([O-])[O-].[Al+3]` [AlPO4], the “log Ksp” value ([1]; metal phosphates) is given as −20.0.

In the case of `[Ce+3].[OH-].[OH-].[OH-]` [Ce(OH)3], the “log Ksp” value ([1]; metal hydroxides) is given as −22.3.

For `[Ce+4].[OH-].[OH-].[OH-].[OH-]` [Ce(OH)4], the “log Ksp” value ([1]; metal hydroxides) is given as −47.7.

For `O=P([O-])([O-])[O-].[Ce+3]` [CePO4], the “log Ksp” value ([1]; metal phosphates) is given as −26.2.

For `O=P([O-])([O-])[O-].O=P([O-])([O-])[O-].[Cu+2].[Cu+2].[Cu+2]` [Cu3(PO4)2], the “log Ksp” value ([1]; metal phosphates) is given as −36.9.

In the case of `[Cu+2].[OH-].[OH-]` [Cu(OH)2], the “log Ksp” value ([1]; metal hydroxides) is listed as −19.3.

In the case of `O=S(=O)([O-])[O-].[Cu+2]` [CuSO4], the “Growth of Chlorella vulgaris (bottom pellicle formation)” value (from here on “Growth of Chlorella vulgaris”) (Chlorella vulgaris; 0.25 ppm test compound) is reported as “++”, the “Growth of Chlorella vulgaris” value (Chlorella vulgaris; 0.5 ppm test compound) is reported as “++” and the “Growth of Chlorella vulgaris” value (Chlorella vulgaris; 1 ppm test compound) is reported as “+”. The “Growth of Chlorella vulgaris” value (Chlorella vulgaris; 2 ppm test compound) was “−”, the “Growth of Chlorella vulgaris” value (Chlorella vulgaris; 4 ppm test compound) was “−” and the “Growth of Chlorella vulgaris” value (Chlorella vulgaris; 8 ppm test compound) was “−”. For the same compound, the “Growth of Chlorella vulgaris” value (Chlorella vulgaris; 16 ppm test compound) was “−”, the “Growth of Chlorella vulgaris” value (Chlorella vulgaris; 32 ppm test compound) was “−” and the “Growth of Chlorella vulgaris” value (Chlorella vulgaris; 64 ppm test compound) was “−”.

With `CCCCCCCCCCCCN.Cl` [Dodecylamine HCl] the “Growth of Chlorella vulgaris” value (Chlorella vulgaris; 0.25 ppm test compound) was “−”, the “Growth of Chlorella vulgaris” value (Chlorella vulgaris; 0.5 ppm test compound) was “−” and the “Growth of Chlorella vulgaris” value (Chlorella vulgaris; 1 ppm test compound) was “−”. For the same compound, the “Growth of Chlorella vulgaris” value (Chlorella vulgaris; 2 ppm test compound) was “−”, the “Growth of Chlorella vulgaris” value (Chlorella vulgaris; 4 ppm test compound) was “−” and the “Growth of Chlorella vulgaris” value (Chlorella vulgaris; 8 ppm test compound) was “−”. The “Growth of Chlorella vulgaris” value (Chlorella vulgaris; 16 ppm test compound) was “−”, the “Growth of Chlorella vulgaris” value (Chlorella vulgaris; 32 ppm test compound) was “−” and the “Growth of Chlorella vulgaris” value (Chlorella vulgaris; 64 ppm test compound) was “−”.

For `[La+3].[OH-].[OH-].[OH-]` [La(OH)3], the “log Ksp” value ([1]; metal hydroxides) is listed as −18.5.

In the case of `O=P([O-])([O-])[O-].[La+3]` [LaPO4], the “log Ksp” value ([1]; metal phosphates) is listed as −25.7.

For `[OH][Sn][OH]` [Sn(OH)2], the “log Ksp” value ([1]; metal hydroxides) is given as −26.5.

In the case of `O=P([O-])([O-])[O-].O=P([O-])([O-])[O-].[Zn+2].[Zn+2].[Zn+2]` [Zn3(PO4)2], the “log Ksp” value ([1]; metal phosphates) is listed as −35.3.

For `[OH-].[OH-].[Zn+2]` [Zn(OH)2], the “log Ksp” value ([1]; metal hydroxides) is listed as −16.5.

Compound `[Cl][La]([Cl])[Cl]` [lanthanum chloride] has a Turbidity reduction ([2]; Example 5: within two hours of beginning filtration (diatomaceous earth)) of 97% and a phosphate removed [3] of no less than 90%.

With `[Cl-].[Cl-].[Zn+2]` [zinc chloride] the phosphate reduction ([2]; Example 7: start approx. 1.0 ppm phosphate, within 3 hours, sand filtration) was “more than 90%”.

With Zinc borate the “Growth of Chlorella vulgaris” value (Chlorella vulgaris; 0.25 ppm test compound) was “+”, the “Growth of Chlorella vulgaris” value (Chlorella vulgaris; 0.5 ppm test compound) was “+” and the “Growth of Chlorella vulgaris” value (Chlorella vulgaris; 1 ppm test compound) was “−”. The “Growth of Chlorella vulgaris” value (Chlorella vulgaris; 2 ppm test compound) was “−”, the “Growth of Chlorella vulgaris” value (Chlorella vulgaris; 4 ppm test compound) was “−” and the “Growth of Chlorella vulgaris” value (Chlorella vulgaris; 8 ppm test compound) was “−”. The “Growth of Chlorella vulgaris” value (Chlorella vulgaris; 16 ppm test compound) was “−”, the “Growth of Chlorella vulgaris” value (Chlorella vulgaris; 32 ppm test compound) was “−” and the “Growth of Chlorella vulgaris” value (Chlorella vulgaris; 64 ppm test compound) was “−”.
